Experimental data: article PMC4278708, “A Convenient Method for the Synthesis of (Prop-2-Ynyloxy)Benzene Derivatives via Reaction with Propargyl Bromide, Their Optimization, Scope and Biological Evaluation” (PLoS ONE, 2014)
≈ marks a conversion by molar mass, not a printed value.

Columns and labels:
Bacillus subtillus = test: Antibacterial activity, disc diffusion method; type: cell-based; settings: for inhibition at 100 µg/mL / IC50: Bacillus; for inhibition at 100 µg/mL: 100 ug/ml, read-out: Bacillus subtillus 100 ug/ml (percentage inhibition); for IC50: read-out: Bacillus subtillus IC50 ug/ml
Excerpt: (§1) Disc diffusion method was adopted to test the antibacterial activity of synthesized compounds 2a-10 against […] different bacterial strains. Ampiciline was used as positive control to check antibacterial activity of synthesized compounds. The bacterial strains employed were: Escherichia coli, Bacillus subtillus, Shigella flexneri, Staphylococcus aureus, Pseudomonas aeroginosa and Salmonella typhi.
(§2) Disc diffusion method was used for the determination of antibacterial activity. synthetic organic compounds were examined to evaluate their antibacterial potential against four different strains of bacteria i.e. Staphlococcus aureus (Gram + ive), Pseudomonas- aeroginosa (Gram−ive) and Escherichia coli (Gram−ive), Bacillus subtilis (Gram + ive), Salmonella typhi (Gram−ive) and Shigella flexneri (−ive). The synthetic organic compounds were dissolved in an appropriate solvent to get the solution of known concentration (5 µg/µl or 10 µg/µl). In order to prepare discs of different potencies known volume of extract/synthetic organic compound solution was applied on the discs, air dried and used. After preparation of the sterilized nutrient agar and nutrient broth medium, the sterilized nutrient agar medium was poured under aseptic conditions into sterile glass petri dishes/plates. A known volume of bacterial growth culture can also be poured on the surface of agar medium solidified in petri dishes. After inoculation petri plates were kept at room temperature for 15–30 minutes so that the poured medium is adsorbed. All the discs, including test sample, +ive and –ve controls were placed onto the inoculated nutrient agar medium solidified in petri dishes with the help of sterile forceps and incubated the petri plates at 37°C±2°C for 16–24 hours. Zone of inhibition was measured in mm using ordinary scale. Experiment was repeated three times to get the SD values.

Staphylococcus aureus = test: Antibacterial activity, disc diffusion method; type: cell-based; settings: for inhibition at 40 µg/mL: read-out: Staphylococcus aureus 40 ug/ml (percentage inhibition); for inhibition at 100 µg/mL: read-out: Staphylococcus aureus 100 ug/ml (percentage inhibition)
Excerpt: as §1, §2

[1] = Nitric oxide (NO) scavenging activity (sodium nitropruside / Griess reagent); settings: for Percentage scavenging activity at 50 ug/ml / Percentage scavenging activity at 100 ug/ml: NO
Description: Solutions of known concentration were prepared by dissolving the synthesized compounds in appropriate solvents. A mixture of sample solution (20 µl), 10 mM sodium nitropruside solution (200 µl) and phosphate buffer of 7.4 pH (1780 µl) was taken in a dry test tube and the mixture was incubated at 37°C for 2 hours. 200 µl Griess reagent (0.3% Sulphanilic acid in glacial acetic acid, 0.1% Naphthyl ethylene diamine HCL (NED): Mixed equal volume of both solutions just before use) was added after the incubation period is over. After 20 min keeping the solution at room temperature, its absorbance at 528 nm was measured. Each sample was analyzed in triplicate. Positive control of any known antioxidant and control of all samples were run in parallel. Use of negative control was to calibrate the instrument. Sample blanks were also prepared in case if the samples were coloured. Correction in the absorbance values was made by subtracting the sample blank reading from the sample reading.

urease enzyme = urease enzyme (Canavalia ensiformis, UniProt P07374); test: biochemical; type: biochemical; settings: for inhibition at 50 µg/mL: read-out: Percentage inhibition at 50 ug/mL; for inhibition at 100 µg/mL: read-out: Percentage inhibition at 100 ug/mL
Description: Antiurease activity of the synthesized compounds was determined by using the modified phenol-hypochlorite method. Varying concentrations were used to prepare the urease inhibition curve of Thiourea (a known inhibitor of Urease) in the reaction mixture. Phosphate buffer solution of pH 7 containing 1 unit of enzyme was added about 200 µl in the test tube which was followed by the addition of 230 µl of phosphate buffer and 20 µl of thiourea from a scrupulous stock solution for the particular concentration of thiourea in the reaction mixture respectively. Test sample solutions were added instead of thiourea solution in case of test samples. The reaction mixture were mixed and incubated at 25°C for 5 min. 400 µl of urea stock (20 mM) was added in each test tube. In order to allow the action of urease on urea, all the test tubes were incubated at 40°C.
Phenol hypochlorite reagent (1150 µl) was added after 10 min incubation at 40°C. Test tubes were again incubated at 56°C for 25 min. A blue coloured complex was formed in the reaction mixture. The samples were allowed to cool for 5 min and then their absorbance values were measured at 625 nm and the %age inhibition was calculated. Experiment was repeated three times to get the SD values.

Sequence of urease enzyme (P07374 whole entry, looked up): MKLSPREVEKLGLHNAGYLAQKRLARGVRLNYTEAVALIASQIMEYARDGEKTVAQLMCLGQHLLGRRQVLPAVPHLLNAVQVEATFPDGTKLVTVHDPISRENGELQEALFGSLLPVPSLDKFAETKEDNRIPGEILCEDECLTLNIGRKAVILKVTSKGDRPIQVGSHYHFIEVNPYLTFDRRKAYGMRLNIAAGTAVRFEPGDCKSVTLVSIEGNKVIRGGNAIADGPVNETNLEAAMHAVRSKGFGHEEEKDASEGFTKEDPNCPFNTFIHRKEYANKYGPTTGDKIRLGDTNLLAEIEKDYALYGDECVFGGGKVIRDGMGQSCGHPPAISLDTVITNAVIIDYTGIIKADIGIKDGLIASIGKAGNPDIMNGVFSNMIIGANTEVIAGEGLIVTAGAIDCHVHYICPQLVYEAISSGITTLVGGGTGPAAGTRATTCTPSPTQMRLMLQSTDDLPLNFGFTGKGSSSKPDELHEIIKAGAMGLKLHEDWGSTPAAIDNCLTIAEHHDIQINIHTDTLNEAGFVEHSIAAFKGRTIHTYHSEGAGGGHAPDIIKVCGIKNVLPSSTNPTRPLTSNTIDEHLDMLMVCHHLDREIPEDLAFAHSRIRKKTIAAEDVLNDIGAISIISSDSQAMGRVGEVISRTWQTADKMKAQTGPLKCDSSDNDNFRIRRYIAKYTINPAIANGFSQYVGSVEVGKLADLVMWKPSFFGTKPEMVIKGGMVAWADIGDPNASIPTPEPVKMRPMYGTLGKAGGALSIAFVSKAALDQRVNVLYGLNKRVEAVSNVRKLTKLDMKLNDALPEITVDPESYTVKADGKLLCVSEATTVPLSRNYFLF

Compound | activity against Bacillus subtillus (in words) (Bacillus subtillus) | inhibition at 100 µg/mL (Bacillus subtillus) [%] | IC50 (Bacillus subtillus) [µg/mL] | IC50 (Staphylococcus aureus; Staphylococcus aureus, read-out: Staphylococcus aureus IC50 ug/ml) [µg/mL] | inhibition at 40 µg/mL (Staphylococcus aureus; Staphylococcus aureus) [%] | inhibition at 100 µg/mL (Staphylococcus aureus; Staphylococcus aureus) [%] | IC50 ([1]; NO scavenging) [µg/mL] | Percentage scavenging activity at 50 ug/ml [1] [%] | Percentage scavenging activity at 100 ug/ml [1] [%] | IC50 (urease enzyme) [µM] | inhibition at 50 µg/mL (urease enzyme) [%] | inhibition at 100 µg/mL (urease enzyme) [%] | melting point [°C] | activity against Staphylococcus aureus (in words) (Staphylococcus aureus) | nitric oxide scavenging activity (in words) [1]
C#CCOc1ccc(Br)cc1Br [Compound 2c, 2,4-dibromo-1-(prop-2-ynyloxy)benzene] | batter activity | 55.01 ± 0.25 | 83.8 (≈ 289 µM) | 87.7 (≈ 302 µM) | 31.47 ± 0.2 | 56 ± 0.1 | 63.8 (≈ 220 µM) | 39.67±0.09 | 77.03±0.11 | 242 | 36 ± 0.5 | 86.45 ± 0.07 | 157.95 |  | 
C#CCOc1ccc([N+](=O)[O-])cc1 [Compound 2f, 1-nitro-4-(prop-2-ynyloxy)benzene] | batter activity | 57.9 ± 0.25 | 87.5 (≈ 494 µM) |  | 18.7 ± 0.3 | 39 ± 0.4 |  | 32±0.10 | 47.01±0.27 | 360 | 44 ± 0.43 | 65.8 ± 0.18 | 129 | inactive | did not show any significant results
